# Results from patent US20260317320A1, “C5AR1 ANTAGONISTS AND USES THEREOF” (Vanqua Bio, Inc., priority 2022, published 2026).
# Key:
# [1] = biological target: T1, complement C5a receptor 1 (C5aR1) (Homo sapiens, UniProt P21730); experiment: β-arrestin recruitment via C5aR1 activation in live CHO-K1 cells (PathHunter), antagonist mode; type: cell-based; details: antagonist mode; recombinant hC5a (EC90) as competing natural agonist; live CHO-K1 cells; read-out: [Antagonist] B-arrestin2 recruitment: Average IC50
# T1 construct: β-galactosidase fragment (PathHunter enzyme complementation); host or cells: CHO-K1 (PathHunter CHO-K1 C5aR1 β-arrestin cell line)
# T1 sequence (P21730 1-350): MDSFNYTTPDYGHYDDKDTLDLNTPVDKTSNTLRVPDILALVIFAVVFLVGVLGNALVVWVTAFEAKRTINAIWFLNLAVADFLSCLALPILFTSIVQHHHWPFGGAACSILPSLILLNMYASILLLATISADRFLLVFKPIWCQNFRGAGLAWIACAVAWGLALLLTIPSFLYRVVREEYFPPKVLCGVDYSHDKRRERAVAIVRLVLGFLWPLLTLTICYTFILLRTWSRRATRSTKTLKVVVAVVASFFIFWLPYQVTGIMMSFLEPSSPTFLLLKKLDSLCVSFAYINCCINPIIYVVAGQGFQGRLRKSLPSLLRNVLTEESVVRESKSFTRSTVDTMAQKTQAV
# Summary of the method: (§1)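 β-arrestin recruitment to C5aR1 in CHO-K1 cells is detected by enzyme-fragment complementation. Antagonism is measured against recombinant hC5a at its EC90; agonism is measured with compound alone. Potencies are grouped into IC50 categories.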
# [2] = biological target: T1, complement C5a receptor 1 (C5aR1); experiment: β-arrestin recruitment via C5aR1 activation in live CHO-K1 cells (PathHunter), agonist mode; type: cell-based
# Summary of the method: as §1
SMILES,IC50 [1] [nM],[Agonist] B-arrestin2 recruitment: Average EC50 (nM) [2]
"Cc1cnc2cc(C3CCCCC3)c(=O)n(Cc3ncccc3C(F)(F)F)c2n1 [compound 265, 7-Cyclohexyl-3-methyl-5-{[3-(trifluoromethyl)-2-pyridyl]methyl}-1,4,5-triaza-6(5H)-naphthalenone]",500 to 5000,Non-Active
"Cc1cnc2cc([C@H]3CC[C@H](c4c(F)cnc5c4cnn5C)CC3)c(=O)n(Cc3ncccc3C(F)(F)F)c2n1 [compound 266, 3-Methyl-7-[(1r,4r)-4-(5-fluoro-1-methyl-1H-1,2,7-triazainden-4-yl)cyclohexyl]-5-{[3-(trifluoromethyl)-2-pyridyl]methyl}-1,4,5-triaza-6(5H)-naphthalenone]",5000 to 100000,Non-Active
"Cc1cccc(F)c1[C@H]1CC[C@H](c2cc3ncc(C(C)(F)F)nc3n(Cc3ncccc3C(F)(F)F)c2=O)CC1 [compound 267, 3-(1,1-Difluoroethyl)-7-[(1r,4r)-4-(2-fluoro-6-tolyl)cyclohexyl]-5-{[3-(trifluoromethyl)-2-pyridyl]methyl}-1,4,5-triaza-6(5H)-naphthalenone]",< 500,Non-Active

# The next lines start with the values.
IC50 [1] [nM],[Agonist] B-arrestin2 recruitment: Average EC50 (nM) [2],SMILES
< 500,Non-Active,"Cc1ccc2cc([C@H]3CC[C@H](c4c(C)cccc4F)CC3)c(=O)n(Cc3nccnc3OCC(F)(F)F)c2n1 [compound 264, 7-Methyl-3-[(1r,4r)-4-(2-fluoro-6-tolyl)cyclohexyl]-1-{[3-(2,2,2-trifluoroethoxy)-2-pyrazinyl]methyl}-1,8-diaza-2(1H)-naphthalenone]"
< 500,Non-Active,"Cc1ccc2cc([C@H]3CC[C@H](c4c(C)cccc4F)CC3)c(=O)n(Cc3ncccc3CC(F)F)c2n1 [compound 268, 1-{[3-(2,2-Difluoroethyl)-2-pyridyl]methyl}-7-methyl-3-[(1r,4r)-4-(2-fluoro-6-tolyl)cyclohexyl]-1,8-diaza-2(1H)-naphthalenone]"
